Assay results taken from patent US9596857B2, “Insecticidal and miticidal mixtures of bifenthrin and cyano-pyrethroids” (FMC Corporation, priority 2005, dated 2017).

Columns and labels:
Format in all cases: in vivo
[1] = tested on: Colorado potato beetle (Leptinotarsa decemlineata [Say]); test: Foliar leaf-dip test against adult Colorado potato beetle on tomato plants; settings: technical, 72 h
Protocol: (§1) Candidate insecticide compositions were evaluated for activity in foliar evaluations against tobacco budworm (Heliothis virescens [Fabricius]), Colorado potato beetle (Leptinotarsa decemlineata [Say]), corn earworm (Helicoverpa zea [Boddie]), cotton aphid (Aphis gossypii [Glover]) and twospotted spider mite (Tetranychus urticae [Koch]). Each test included controls in which the formulation or test solution minus the active ingredients were applied.
In tests against adult Colorado potato beetle, the leaves of 6-8 inch tall tomato plants (Lycopersicon lycoper) were dipped into the test solutions of the test formulations to provide application rates as high as 1000 ppm of the active ingredients. The test formulations were dissolved in distilled water containing 10% acetone and 0.25% of a non-ionic detergent [an octylphenolpoly(ethyleneglycolether)x, available from Roche Applied Science as Triton X-100] to the proper concentrations. The treated plants were transferred to a hood where they were kept until the leaves had dried. For tests in which the active ingredients were not formulated, i.e. the technical active ingredient was used; a stock solution of the test compound was made. For example, a 100 ppm stock solution may be made by dissolving 4 milligrams of the test compound in 4 mL of acetone and adding the solution to 36 mL of an aqueous Triton X-100 solution (one drop of Triton X-100 dissolved in 100 mL of distilled water). Further dilutions can be made by adding distilled water containing 10% acetone and 0.25% of Triton X-100.
The treated tomato plants were removed from their pots by cutting the stems just above the soil line. Each excised plant was placed into an individual 8-ounce paper cup. Ten adult Colorado potato beetles were placed into each paper cup, taking care not to cause injury. An opaque plastic lid was placed on each cup, for a 72 hour exposure period and held at 25° C., 50% relative humidity with a photo-period of 12 hours light and 12 hours dark. At the end of the 72 hour exposure period, the cups were opened, and the numbers of dead and live insects were counted. Using the insect counts, the activity of the test chemical was expressed in percent control. Percent control is derived from the total number of dead insects (TD) compared to the total number of insects (TI) in the test: […]

[2] = tested on: cotton aphid (Aphis gossypii [Glover]); test: Foliar leaf-dip test against cotton aphid on tomato plants; settings: technical, 72 h
Protocol: as §1
In tests against cotton aphid, the leaves of 6 to 8 inch tall tomato plants (Lycopersicon lycoper) were infested with about 50 cotton aphids by placing leaf cuttings from a cotton aphid colony host tomato plant. After about 12 hours the newly infested tomato leaves were dipped into the test solutions of the test formulations to provide application rates as high as 1000 ppm of the active ingredients. The test formulations were dissolved in, and diluted as necessary, with distilled water containing 10% acetone and 0.25% of a non-ionic detergent [an octylphenolpoly(ethyleneglycolether)x, available from Roche Applied Science as Triton X-1001 to the proper concentrations. After treatment, a square of parafilm was placed around the stem of each test plant, covering the soil of each pot in order to catch dead aphids that fall from the leaves. The treated plants were transferred to a hood where they were kept until the leaves had dried. Once dry, the potted plants were placed into a tray containing at least one inch of water. The plants were spaced far enough apart to prevent the aphids from moving between plants. The trays were held in a growth chamber for 72 hours at 25° C., 50% relative humidity and a photoperiod of 14 hours light/10 hours dark. For tests in which the active ingredients were not formulated, i.e. the technical active ingredient was used; a stock solution of the test compound was made. For example, a 100 ppm stock solution may be made by dissolving 4 milligrams of the test compound in 4 mL of acetone and adding the solution to 36 mL of an aqueous Triton X-100 solution (one drop of Triton X-100 dissolved in 100 mL of distilled water). Further dilutions can be made by adding distilled water containing 10% acetone and 0.25% of Triton X-100.
At the end of the 72 hour exposure period the numbers of dead and live insects were counted. Insects were classified as “dead” if they were off-color or brown and desiccated. Using the insect counts, the activity of the test chemical was expressed in percent control. Percent control is derived from the total number of dead insects (TD) compared to the total number of insects (TI) in the test: […]

[3] = tested on: twospotted spider mite (Tetranychus urticae [Koch]); test: Foliar leaf-dip test against twospotted spider mite on pinto bean plants; settings: technical, 96 h
Protocol: as §1
In tests against twospotted spider mites, the leaves of potted 3 to 4 inch tall pinto bean plants (Phaseolus vulgaris) were infested with about 50 to 75 adult twospotted spider mites by placing leaf cuttings from a twospotted spider mite colony host pinto bean plant on the upper surface of the test plant leaves. After about 1 hour the newly infested pinto bean leaves were dipped into the test solutions of the test formulations to provide application rates as high as 1000 ppm of the active ingredients. The test formulations were dissolved in, and diluted as necessary, with distilled water containing 10% acetone and 0.25% of a non-ionic detergent [an octylphenolpoly(ethyleneglycolether)x, available from Roche Applied Science as Triton X-100] to the proper concentrations. The treated plants were transferred to a hood where they were kept until the leaves had dried. Once dry, the potted plants were placed into a tray containing at least one inch of water. The plants were spaced far enough apart to prevent the mites from moving between plants. The trays were held in a growth chamber for 96 hours at 25° C., 50% relative humidity and a photoperiod of 14 hours light/10 hours dark. For tests in which the active ingredients were not formulated, i.e. the technical active ingredient was used; a stock solution of the test compound was made. For example, a 100 ppm stock solution may be made by dissolving 4 milligrams of the test compound in 4 mL of acetone and adding the solution to 36 mL of an aqueous Triton X-100 solution (one drop of Triton X-100 dissolved in 100 mL of distilled water). Further dilutions can be made by adding distilled water containing 10% acetone and 0.25% of Triton X-100.
(§2) At the end of the 96 hour exposure period the numbers of dead and live insects were counted. […] Using the insect counts, the activity of the test chemical was expressed in percent control. Percent control is derived from the total number of dead insects (TD) compared to the total number of insects (TI) in the test: […]

[4] = tested on: corn earworm (Helicoverpa zea [Boddie]); test: Cotton leaf-disc dip test against corn earworm; settings: technical, 96 h
Protocol: as §1
In tests against corn earworm, one inch diameter leaf discs cut from cotton plant leaves (Gossypium hirsutum) were dipped into the test solutions of the test formulations to provide application rates as high as 1000 ppm of the active ingredients. The test formulations were dissolved in distilled water containing 10% acetone and 0.25% of a non-ionic detergent [an octylphenolpoly(ethyleneglycolether)x, available from Roche Applied Science as Triton X-100] to the proper concentrations. Cotton wicks, 0.5 inch diameter by 2 inches long, were soaked with distilled water and placed into the wells of a 32 well rearing tray (available as Rearing Tray Bio-Fit 32, from C-D International, Pittman, N.J.), one wick per well. Treated leaf discs were placed on top of the cotton wicks, one leaf disc per wick, and the rearing tray was transferred to a hood where they were kept until the leaf discs had dried. Each disc was infested with 1 late second to early third instar corn earworm, replicated sixteen times per rate of application, and a lid was placed on the rearing tray. The rearing trays were held in a growth chamber for 96 hours at 25° C., 50% relative humidity and a photoperiod of 12 hours light/12 hours dark. For tests in which the active ingredients were not formulated, i.e. the technical active ingredient was used; a stock solution of the test compound was made. For example, a 100 ppm stock solution may be made by dissolving 4 milligrams of the test compound in 4 mL of acetone and adding the solution to 36 mL of an aqueous Triton X-100 solution (one drop of Triton X-100 dissolved in 100 mL of distilled water). Further dilutions can be made by adding distilled water containing 10% acetone and 0.25% of Triton X-100.
as §2, with “period, the rearing tray was opened, and” for “period”

[5] = cyano-pyrethroid 0.3 ppm alone (bifenthrin 0 ppm)
[6] = cyano-pyrethroid 1.0 ppm alone (bifenthrin 0 ppm)
[7] = cyano-pyrethroid 3.0 ppm alone (bifenthrin 0 ppm)
[8] = cyano-pyrethroid 10.0 ppm alone (bifenthrin 0 ppm)
[9] = cyano-pyrethroid 30.0 ppm alone (bifenthrin 0 ppm)
[10] = cyano-pyrethroid 100.0 ppm alone (bifenthrin 0 ppm)
[11] = cyano-pyrethroid 200.0 ppm alone (bifenthrin 0 ppm)
[12] = cyano-pyrethroid 0.3 ppm alone (bifenthrin 0.0 ppm)
[13] = cyano-pyrethroid 1.0 ppm alone (bifenthrin 0.0 ppm)
[14] = cyano-pyrethroid 3.0 ppm alone (bifenthrin 0.0 ppm)
[15] = cyano-pyrethroid 10.0 ppm alone (bifenthrin 0.0 ppm)

With `CC1(C)[C@H](C(=O)O[C@H](C#N)c2cccc(Oc3ccccc3)c2)[C@@H]1C=C(Br)Br` [delta-methrin, (S)-α-cyano-3-phenoxybenzyl (1R)-cis-3-(2,2-dibromovinyl)-2,2-dimethylcyclopropanecarboxylate] as the compound, how does the “% Mortality Adult Colorado Potato Beetle” value [1, 5] read?
The value was 0%.

What about the “% Mortality Adult Colorado Potato Beetle” value [1, 6] of the same compound?
The value was 30%.

What about the “% Mortality Adult Colorado Potato Beetle” value [1, 7] of the same compound?
Its value is 90%.

And the “% Mortality Adult Colorado Potato Beetle” value [1, 8]?
Its value is 100%.

And the “% Mortality Cotton Aphid” value [2, 9]?
The value was 7%.

What about the “% Mortality Cotton Aphid” value [2, 10] of the same compound?
Its value is 8%.

What about the “% Mortality Cotton Aphid” value [2, 11] of the same compound?
Its value is 19%.

And the “% Mortality Twospotted Spider Mite” value [3, 8]?
The value was 3%.

And the “% Mortality Twospotted Spider Mite” value [3, 9]?
Its value is 83%.

And the “% Mortality Twospotted Spider Mite” value [3, 10]?
The value was 26%.

What about the “% Mortality Twospotted Spider Mite” value [3, 11] of the same compound?
Its value is 16%.

And the “% Mortality Corn Earworm” value [4, 12]?
Its value is 6%.

And the “% Mortality Corn Earworm” value [4, 13]?
Its value is 50%.

What about the “% Mortality Corn Earworm” value [4, 14] of the same compound?
The value was 94%.

What about the “% Mortality Corn Earworm” value [4, 15] of the same compound?
The value was 100%.

What does the source list for `CC(C)[C@H](C(=O)O[C@H](C#N)c1cccc(Oc2ccccc2)c1)c1ccc(Cl)cc1` [esfenvalerate, (S)-α-cyano-3-phenoxybenzyl (S)-2-(4-chlorophenyl)-3-methylbutyrate]?
% Mortality Adult Colorado Potato Beetle [1, 5]: 0%; % Mortality Adult Colorado Potato Beetle [1, 6]: 0%; % Mortality Adult Colorado Potato Beetle [1, 7]: 5%; % Mortality Adult Colorado Potato Beetle [1, 8]: 95%; % Mortality Cotton Aphid [2, 9]: 38%; % Mortality Cotton Aphid [2, 10]: 14%; % Mortality Cotton Aphid [2, 11]: 15%; % Mortality Twospotted Spider Mite [3, 8]: 21%; % Mortality Twospotted Spider Mite [3, 9]: 25%; % Mortality Twospotted Spider Mite [3, 10]: 71%; % Mortality Twospotted Spider Mite [3, 11]: 91%; % Mortality Corn Earworm [4, 12]: 0%; % Mortality Corn Earworm [4, 13]: 0%; % Mortality Corn Earworm [4, 14]: 13%; % Mortality Corn Earworm [4, 15]: 50%
